According to paper PMC6430684 (Cell chemical biology, 2019):

Target: HSP90α (Homo sapiens, UniProt P07900)
Test: competitive fluorescence polarization with geldanamycin-FITC
Assay type: binding

IC50: 29.5 nM
SMILES: O=C1C=C(Nc2ccc3cnccc3c2)c2ccccc2C1=O [YZ129, 4-(isoquinolin-6-ylamino)naphthalene-1,2-dione]
